Measurements: ChEMBL document CHEMBL1201862, “PubChem BioAssay data set” (2004)
Activity calls are given as the source filed them.

Columns and labels:
[1] = target: T1, Apoptotic protease-activating factor 1 (Homo sapiens, UniProt O14727); assay type: functional
T1 sequence (O14727 whole entry): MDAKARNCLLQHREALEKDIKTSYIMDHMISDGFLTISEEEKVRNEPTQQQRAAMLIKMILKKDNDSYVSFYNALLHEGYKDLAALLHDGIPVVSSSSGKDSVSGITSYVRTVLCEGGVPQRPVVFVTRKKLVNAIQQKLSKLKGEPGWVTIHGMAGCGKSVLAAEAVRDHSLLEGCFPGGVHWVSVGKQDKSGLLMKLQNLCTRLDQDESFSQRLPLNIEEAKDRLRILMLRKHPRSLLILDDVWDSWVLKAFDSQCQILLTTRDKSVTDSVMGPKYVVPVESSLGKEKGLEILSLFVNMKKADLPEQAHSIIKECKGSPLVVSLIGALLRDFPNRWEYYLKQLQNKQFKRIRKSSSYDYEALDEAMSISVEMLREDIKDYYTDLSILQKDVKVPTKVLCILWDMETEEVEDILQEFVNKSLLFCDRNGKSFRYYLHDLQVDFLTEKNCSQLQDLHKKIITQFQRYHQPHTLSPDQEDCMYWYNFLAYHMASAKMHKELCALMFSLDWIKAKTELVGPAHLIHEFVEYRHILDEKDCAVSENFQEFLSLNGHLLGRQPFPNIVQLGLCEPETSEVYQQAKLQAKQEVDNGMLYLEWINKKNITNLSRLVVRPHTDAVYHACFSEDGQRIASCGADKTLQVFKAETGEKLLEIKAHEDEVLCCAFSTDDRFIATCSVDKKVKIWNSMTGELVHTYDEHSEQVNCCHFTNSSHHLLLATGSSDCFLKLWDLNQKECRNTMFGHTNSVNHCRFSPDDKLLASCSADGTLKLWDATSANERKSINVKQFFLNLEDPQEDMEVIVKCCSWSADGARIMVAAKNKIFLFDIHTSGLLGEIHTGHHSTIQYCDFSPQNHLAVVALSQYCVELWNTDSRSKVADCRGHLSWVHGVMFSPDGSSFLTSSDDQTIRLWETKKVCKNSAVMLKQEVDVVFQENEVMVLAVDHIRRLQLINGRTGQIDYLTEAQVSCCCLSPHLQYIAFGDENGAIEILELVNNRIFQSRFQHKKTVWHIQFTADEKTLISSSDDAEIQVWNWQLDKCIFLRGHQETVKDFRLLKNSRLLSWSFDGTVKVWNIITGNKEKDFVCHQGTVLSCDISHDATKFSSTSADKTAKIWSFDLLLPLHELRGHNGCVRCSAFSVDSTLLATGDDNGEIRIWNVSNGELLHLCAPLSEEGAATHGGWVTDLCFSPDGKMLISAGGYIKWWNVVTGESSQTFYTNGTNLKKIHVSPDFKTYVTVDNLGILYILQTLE

[2] = HCT116 cell viability decrease, GSK3B pretreatment – CellTiter-Glo, IC50, dose response (AID 1117339); assay type: functional; details: HCT-116
[3] = target: T2, Zinc finger protein mex-5 (Caenorhabditis elegans, UniProt Q9XUB2); assay: potency of MEX-5 RNA-binding blockers – biochemical, C. elegans, fluorescence polarization, dose response (AID 1960)
T2 sequence (Q9XUB2 whole entry): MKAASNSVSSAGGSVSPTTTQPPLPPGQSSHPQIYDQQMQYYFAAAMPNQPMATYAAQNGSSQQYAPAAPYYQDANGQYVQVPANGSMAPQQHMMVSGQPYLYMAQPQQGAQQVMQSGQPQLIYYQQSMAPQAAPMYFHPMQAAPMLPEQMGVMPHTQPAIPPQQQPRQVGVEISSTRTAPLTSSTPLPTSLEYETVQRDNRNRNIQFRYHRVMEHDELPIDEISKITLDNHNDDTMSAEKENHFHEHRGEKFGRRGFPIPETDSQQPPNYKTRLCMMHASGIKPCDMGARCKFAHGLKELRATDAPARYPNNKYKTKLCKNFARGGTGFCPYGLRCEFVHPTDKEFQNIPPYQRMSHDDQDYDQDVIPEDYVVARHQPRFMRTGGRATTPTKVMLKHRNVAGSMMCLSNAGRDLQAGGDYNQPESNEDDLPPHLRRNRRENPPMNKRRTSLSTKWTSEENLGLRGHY

[4] = RKO cell viability reduction, dose response, CellTiter-Glo luminescence (AID 1117322); assay type: functional
[5] = target: T3, Rac GTPase-activating protein 1 (Homo sapiens, UniProt Q9H0H5); assay: blockers of MgcRacGAP-driven Rac1 GTP hydrolysis – biochemical, ADP Hunter fluorescence, primary and confirmatory, confirmation (AID 624330); assay type: functional
T3 sequence (Q9H0H5 whole entry): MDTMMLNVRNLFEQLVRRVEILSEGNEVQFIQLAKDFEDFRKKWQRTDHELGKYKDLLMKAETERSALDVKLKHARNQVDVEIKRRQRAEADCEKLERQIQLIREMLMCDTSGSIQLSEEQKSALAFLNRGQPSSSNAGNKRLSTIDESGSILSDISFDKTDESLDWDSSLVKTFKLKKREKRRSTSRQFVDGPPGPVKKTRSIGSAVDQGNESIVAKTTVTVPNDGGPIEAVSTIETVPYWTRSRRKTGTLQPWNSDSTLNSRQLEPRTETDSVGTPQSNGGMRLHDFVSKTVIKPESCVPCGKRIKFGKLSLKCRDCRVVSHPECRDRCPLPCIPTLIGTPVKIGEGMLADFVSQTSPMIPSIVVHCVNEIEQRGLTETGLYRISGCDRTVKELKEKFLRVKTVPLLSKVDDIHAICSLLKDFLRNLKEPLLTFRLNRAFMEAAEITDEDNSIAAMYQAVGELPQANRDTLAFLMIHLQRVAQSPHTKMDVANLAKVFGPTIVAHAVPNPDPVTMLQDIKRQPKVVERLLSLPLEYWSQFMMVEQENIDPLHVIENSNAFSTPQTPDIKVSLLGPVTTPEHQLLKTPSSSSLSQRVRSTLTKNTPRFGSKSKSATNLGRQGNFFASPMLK

[6] = cytotoxicity toward HCT116 cells – cell-based, CellTiter-Glo luminescence, IC50, dose response (AID 1117332); assay type: functional; details: HCT-116

Row | IC50 [1] | SMILES | IC50 [2] | EC50 [3] | IC50 [4] | IC50 [5] | IC50 [6]
1 | 15000 nM (active) | CCCOc1cc2c(C#N)c(N3CCCC3)nc(N)c2c(N)n1 |  |  |  |  | 
2 | 2560 nM (active) | Oc1ccc(/C=N/Nc2cc(N3CCCC3)nc(N3CCCC3)n2)cc1O |  |  |  |  | 
3 |  | Cc1cc2nc3ccc(N(C)C)cc3[s+]c2cc1N [TOLONIUM CHLORIDE] | 1690 nM (active) | 35600 nM (active) | 996 nM (active) | 32400 nM (active) | 2780 nM (active)
